Patent US5840927A, “Sesquiterpene compounds” (Toa Gosei Co., Ltd., priority 1995, dated 1998)
≈ marks a conversion by molar mass, not a printed value.

Legend:
[1] = tested on: Aspergillus fumigatus TIMM0063; experiment: MIC assay of anti-fungal activity in vitro, Aspergillus fumigatus TIMM0063; type: cell-based; settings: 96 h, A. fumigatus TIMM0063, Yeast Morphology Ager, serial double dilution, 30° C., 4 days
Procedure: (§1) In the following, examples of anti-fungal assays are described.
(§2) In the assay standard microbial strains supplied from Research Center for Eumyceta and Mycosis, Teikyo University, Japan, were used as the test fungi, and Yeast Morphology Ager (DIFCO) was used as the medium for the drug sensitivity assays.
(§3) Firstly, the given fungus was smeared on the potato-dextrose agar media (Nissui Seiyaku) slants, incubated at 30° C. for 1 day (for Candida albicans and Cryptococcus neoformans) or for 4 days (for Aspergillus nigar and Aspergillus fumigatus), and then the fungus grown on the slant was washed out with a sterilized physiological salt solution containing 0.1% Tween 80. The washed out fungus was passed through a filter with 15 μm bores, and, after the number of fungus colonies were counted on the blood cell counting plate, a suspension containing 10^5 CFU/ml of fungus was prepared to be used as the inoculation solution. After this solution (0.02 ml) was inoculated to Yeast Morphology Ager containing a drug at concentrations in a serial double dilution, it was cultured at 30° C. for either 1 day or 4 days.
(§4) MIC assay of cryptoporic acid H was carried out by the similar procedure as described above.

[2] = tested on: Candida albicans TIMM1623; experiment: MIC assay of anti-fungal activity in vitro, Candida albicans TIMM1623; type: cell-based; settings: 24 h, C. albicans TIMM1623, Yeast Morphology Ager, serial double dilution, 30° C., 1 day
Procedure: as §1, §2, §3, §4

[3] = tested on: Saccharomyces cerevisiae JCM2216; experiment: MIC assay, Saccharomyces cerevisiae JCM2216; type: cell-based; settings: similar procedure as described above
[4] = tested on: Aspergillus niger TIMM0113; experiment: MIC assay of anti-fungal activity in vitro, Aspergillus niger TIMM0113; type: cell-based; settings: 96 h, A. niger TIMM0113, Yeast Morphology Ager, serial double dilution, 30° C., 4 days
Procedure: as §1, §2, §3, §4

Solubility = type: physicochemical
C. neoformans TIMM0354 = experiment: MIC assay of anti-fungal activity in vitro, Cryptococcus neoformans TIMM0354; type: cell-based; settings: 24 h, Yeast Morphology Ager, serial double dilution, 30° C., 1 day
Procedure: as §1, §2, §3

[5] = tested on: Candida albicans, Cryptococcus neoformans, Aspergillus nigar and Aspergillus fumigatus; experiment: anti-microbial activity in vitro against test fungi (overall statement); type: cell-based; settings: stated in words
Procedure: as §1, §2, §3

[6] = in methanol, acetone, and ethyl acetate

Row | Structure (SMILES) | MIC [1] | MIC [2] | MIC [3] | MIC [4] | Solubility (Solubility; in chloroform) | Solubility (Solubility; [6]) | Solubility (Solubility; in water) | MIC (C. neoformans TIMM0354) | anti-fungal activities [5]
1 | C=C1CC[C@H]2C(C)(C)CCC[C@]2(C)[C@H]1COC(C(=O)O)C(CC(=O)O)C(=O)O (some centres unmarked) [Cryptoporic acid H, cryptoporic acid H] | 200 µg/mL (≈ 504 µM) | 200 µg/mL (≈ 504 µM) | 200 µg/mL (≈ 504 µM) | 200 µg/mL (≈ 504 µM) | – | – | – | – | –
2 | C=C1CC[C@H]2C(C)(C)CCC[C@]2(C)[C@H]1COC(C(=O)OC)C(CC(=O)O)C(=O)O[C@H]1CC(C)(C)[C@@H]2CC=C(C=O)[C@H](C=O)[C@@]2(C)C1 (some centres unmarked) [TG101] | 50 µg/mL (≈ 77.8 µM) | 100 µg/mL (≈ 156 µM) | – | 50 µg/mL (≈ 77.8 µM) | soluble | readily soluble | slightly soluble | 50 µg/mL (≈ 77.8 µM) | confirming their anti-fungal activities
3 | C=C1CC[C@H]2C(C)(C)CCC[C@]2(C)[C@H]1COC(C(=O)O[C@H]1CC(C)(C)[C@@H]2CC=C(C=O)[C@H](C=O)[C@@]2(C)C1)C(CC(=O)O)C(=O)OC (some centres unmarked) [TG102] | – | – | – | – | soluble | readily soluble | slightly soluble | – | –
4 | C=C1CC[C@H]2C(C)(C)CCC[C@]2(C)[C@H]1COC(C(=O)OC)C(CC(=O)O)C(=O)O[C@H]1CC(C)(C)[C@@H]2CC=C3COC(O)[C@@H]3[C@@]2(C)C1 (some centres unmarked) [TG103] | 25 µg/mL (≈ 38.8 µM) | 100 µg/mL (≈ 155 µM) | – | 100 µg/mL (≈ 155 µM) | soluble | readily soluble | slightly soluble | 50 µg/mL (≈ 77.5 µM) | confirming their anti-fungal activities
5 | C=C1CC[C@H]2C(C)(C)CCC[C@]2(C)[C@H]1COC(C(=O)O[C@H]1CC(C)(C)[C@@H]2CC=C3COC(O)[C@@H]3[C@@]2(C)C1)C(CC(=O)O)C(=O)OC (some centres unmarked) [TG104] | – | – | – | – | soluble | readily soluble | slightly soluble | – | –
